Drawing on ChEMBL document CHEMBL1128067, “Isosteric replacement of the indole nucleus by benzothiophene in a series of pyrido[2,3-b]indoles with potential anxiolytic activity” (Bioorg Med Chem Lett, 1995), this text covers IC50, Change and Nr/N for 14 compounds.

As a reminder, the IC50 is the concentration that gives 50% inhibition.

In experiment [1] the target is GABA-A receptor; anion channel. Description: In vitro inhibition of [35S]t-butyl-bicyclophosphorothionate (TBPS) binding to Gamma-aminobutyric acid A (GABA-A) receptor. Type of experiment: protein-complex assay, Rattus norvegicus.
Experiment [2] deals with Rattus norvegicus. Description: Percent change in punished responding phase (FR) after administration of 20 mg/Kg oral dose in rat Geller-Seifter test. Type of experiment: functional.
In experiment [3] the test system is Rattus norvegicus. Description: Percent change in variable interval unpunished responding phase (VI) after administration of 20 mg/Kg oral dose in rat Geller-Seifter test. It is filed as functional.
Experiment [4] is filed under the species Rattus norvegicus. Description: Number of animals responding to the above phases out of 6 tested, expressed as Nr/N. Type of experiment: functional.
For experiment [5], the target named is GABA-A receptor; anion channel. Description: Inhibition of [3H]flunitrazepam binding to GABA-A receptor. Type of experiment: protein-complex assay, Rattus norvegicus.
For experiment [6], the species on record is Rattus norvegicus. Description: Number of animals responding to the above phases out of 16 tested, expressed as Nr/N. Type of experiment: functional.
The test system of experiment [7] is Rattus norvegicus. Description: Percent change in variable interval unpunished responding phase (VI) after administration of 40 mg/Kg intraperitoneally in rat Geller-Seifter test. Type of experiment: functional.
For experiment [8], the species on record is Rattus norvegicus. Description: Number of animals responding to the above phases out of 8 tested, expressed as Nr/N. Type of experiment: functional.
The subject of experiment [9] is Rattus norvegicus. Description: Percent change in punished responding phase (FR) after administration of 40 mg/Kg intraperitoneally in rat Geller-Seifter test. Type of experiment: functional.
Experiment [10] relates to Rattus norvegicus. Description: Percent change in punished responding phase (FR) after administration of 20 mg/kg oral dose in rat Geller-Seifter test. Type of experiment: functional.
In experiment [11] the test system is Rattus norvegicus. Description: Percent change in variable interval unpunished responding phase (VI) after administration of 20 mg/kg oral dose in rat Geller-Seifter test. It is filed as functional.
In experiment [12] the test system is Rattus norvegicus. Description: Percent change in punished responding phase (FR) after administration of 20 mg/kg oral dose in rat Geller-Seifter test. It is filed as functional.
In experiment [13] the test system is Rattus norvegicus. Description: Percent change in punished responding phase (FR) after administration of 10 mg/Kg oral dose in rat Geller-Seifter test. Type of experiment: functional.
Experiment [14] deals with Rattus norvegicus. Description: Percent change in variable interval unpunished responding phase (VI) after administration of 10 mg/Kg oral dose in rat Geller-Seifter test. Type of experiment: functional.

Some results are limits rather than exact numbers.

Compound `CC1CCc2nc3sc4c(c3c(N)c2C1=O)CCC4` (stereo unspecified) gave an IC50 in [1] of 1.7 µM. In addition, the Change in experiment [2] is 26%; in [3], 0%. The Nr/N in experiment [4] was determined as 5.

In the case of `COC(=O)c1c(C)nc2c(c(C)c(C)n2C)c1N`, the IC50 in experiment [1] was 12 µM; in experiment [5] it was over 100 µM.

Regarding `Cn1c2ccccc2c2c(N)c3c(nc21)CCCC3`, the IC50 in experiment [1] was over 100 µM.

Consider `CCOC(=O)c1c(C)nc2c(c1N)c1ccccc1n2C`, for which, in experiment [5], the IC50 was over 100 µM. For the same compound, the Change is on record as 22% in [2] and -3% in experiment [3]. This compound displayed a Nr/N in experiment [6] of 12.

In turn, `CC1CCc2nc3sc4ccccc4c3c(N)c2C1=O` (stereo unspecified) had an IC50 in experiment [1] of 0.46 µM. The Change in experiment [2] worked out at 30%; in experiment [3], 0%. The compound further yielded a Nr/N in experiment [4] of 5.

`CC1CCc2nc3sc4c(c3c(N)c2C1=O)CCCC4` (stereo unspecified) displayed an IC50 in experiment [1] of 1.6 µM.

`COC(=O)c1c(C)nc2sc3c(c2c1N)CCCC3` came in with an IC50 in experiment [1] of 7.5 µM. For the same compound, the results for the Change in [7] and in experiment [9] were 0% and 42%, respectively. For the same compound, in experiment [8], the Nr/N worked out at 8.

For `CC1CCc2nc3c(c(N)c2C1=O)c1c(n3C)CCCC1` (stereo unspecified), the IC50 amounted to 2.7 µM in [1] and 18 µM in [5]. The Change in experiment [10] was found to be 28%; in experiment [11] it was 1%. The Nr/N in experiment [4] worked out at 5.

Take `CC1CCc2nc3sc4c(c3c(N)c2C1=O)CCCCC4` (stereo unspecified): the IC50 in experiment [1] turned out to be 0.37 µM. This counts as sub-micromolar.

In turn, `CC1CCc2nc3c(c(N)c2C1=O)c1ccccc1n3C` (stereo unspecified) registered a half-inhibitory concentration (IC50) in [5] of over 100 µM. For the same compound, the values for the Change in experiment [2] and in [3] were 52% and 0%, respectively. Further, the Nr/N in experiment [4] was 5.

Regarding `Nc1c2c(nc3sc4c(c13)CCCCC4)CCCC2=O`, the IC50 was 0.29 µM in [1] and over 100 µM in experiment [5].

In experiment [1], `Cn1c2c(c3c(N)c4c(nc31)CCCC4=O)CCCC2` registered an IC50 of 6.3 µM.

In the case of `Cn1c2ccccc2c2cc3c(nc21)CCCC3=O`, the IC50 was 10 µM in [1] and over 100 µM in experiment [5]. Besides, the figures for the Change in experiment [12] and in experiment [11] were 4% and 2%, respectively. The Nr/N in experiment [4] was 3.

For the compound `CN1C(=O)CN=C(c2ccccc2)c2cc(Cl)ccc21` [DIAZEPAM], the Change in experiment [13] came to 114%; in experiment [14] it was 10%. This compound also gave a Nr/N in [8] of 7.
